What was measured:
Test in all cases: post-emergence herbicidal activity, greenhouse
Type in all cases: in vivo
[1] = tested on: Sugar Beet; details: Table III
How it was run: (§1)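 Injury scores compare treated plants with untreated control pans at roughly 2 and 4 weeks post-spray. Treatment was a single atomizer application, in a solution or suspension with about 0.4% emulsifier by weight, to greenhouse plants aged two to three weeks.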

[2] = tested on: Rice; details: Table III
How it was run: as §1

[3] = tested on: Yellow Nutsedge; details: Table II
How it was run: (§2)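 Candidate chemical is applied by atomizer at the indicated rates to emerged plants of 2–3 weeks, spray containing about 0.4 wt% emulsifier. Effects are judged as injury against unsprayed control pans, approximately two and four weeks post-application.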

[4] = tested on: Cocklebur
How it was run: as §1

[5] = tested on: Morningglory
How it was run: as §1

[6] = tested on: Wild Buckwheat; details: Table III
How it was run: as §1

[7] = tested on: Velvetleaf
How it was run: as §1

[8] = tested on: Quackgrass; details: Table II
How it was run: as §2

[9] = tested on: Panicum Spp; details: Table III
How it was run: as §1

[10] = 2 WAT, 1.1 kg/h, formulated in anhydrous tetrahydrofuran
[11] = 2 WAT, 5.6 kg/h, formulated in anhydrous tetrahydrofuran
[12] = 2 WAT, .28 kg/h, formulated in anhydrous tetrahydrofuran
[13] = 4 WAT, 1.1 kg/h, formulated in anhydrous tetrahydrofuran
[14] = 4 WAT, 5.6 kg/h, formulated in anhydrous tetrahydrofuran
[15] = 4 WAT, .28 kg/h, formulated in anhydrous tetrahydrofuran
[16] = 2 WAT, 11.2 kg/h, formulated in anhydrous tetrahydrofuran
[17] = 4 WAT, 11.2 kg/h, formulated in anhydrous tetrahydrofuran
[18] = Table II, 2 WAT, 5.6 kg/h, formulated in anhydrous tetrahydrofuran
[19] = Table II, 2 WAT, 11.2 kg/h, formulated in anhydrous tetrahydrofuran
[20] = Table II, 4 WAT, 5.6 kg/h, formulated in anhydrous tetrahydrofuran
[21] = Table II, 4 WAT, 11.2 kg/h, formulated in anhydrous tetrahydrofuran
[22] = Table III, 2 WAT, 1.1 kg/h, formulated in anhydrous tetrahydrofuran
[23] = Table III, 2 WAT, 5.6 kg/h, formulated in anhydrous tetrahydrofuran
[24] = Table III, 2 WAT, .28 kg/h, formulated in anhydrous tetrahydrofuran
[25] = Table III, 4 WAT, 1.1 kg/h, formulated in anhydrous tetrahydrofuran
[26] = Table III, 4 WAT, 5.6 kg/h, formulated in anhydrous tetrahydrofuran
[27] = Table III, 4 WAT, .28 kg/h, formulated in anhydrous tetrahydrofuran

CCCCOC(=O)CNCP(=O)(O)O[Si](c1ccccc1)(c1ccccc1)C(C)(C)C [Ex. 6, Glycine, N--((([(1,1-Dimethylethyl)Diphenylsilyl]Oxy)Hydroxyphosphinyl)methyl)-Butyl Ester]
0 (0-24% inhibition): Plant Response Index (M) ([1]; 2 WAT, .28 kg/h) | Plant Response Index (M) [1, 12] | Plant Response Index (M) [1, 15] | Plant Response Index (O) [2, 10] | Plant Response Index (O) ([2]; 2 WAT, .28 kg/h) | Plant Response Index (O) [2, 12] | Plant Response Index (O) [2, 13] | Plant Response Index (O) [2, 15] | Plant Response Index (G) ([3]; 2 WAT, 5.6 kg/h) | Plant Response Index (G) [3, 11] | Plant Response Index (G) [3, 16] | Plant Response Index (B) ([4]; Table III, 2 WAT, .28 kg/h) | Plant Response Index (C) ([7]; Table II, 2 WAT, 5.6 kg/h) | Plant Response Index (C) [7, 18] | Plant Response Index (C) [7, 19] | Plant Response Index (C) ([7]; Table II, 4 WAT, 5.6 kg/h) | Plant Response Index (C) [7, 20] | Plant Response Index (C) ([7]; Table III, 2 WAT, .28 kg/h) | Plant Response Index (C) [7, 24] | Plant Response Index (C) [7, 27] | Plant Response Index (H) ([8]; 2 WAT, 5.6 kg/h) | Plant Response Index (H) [8, 11] | Plant Response Index (H) [8, 16] | Plant Response Index (H) ([8]; 4 WAT, 5.6 kg/h) | Plant Response Index (H) [8, 17] | Plant Response Index (S) [9, 12] | Plant Response Index (S) [9, 15]
2 (50-74% inhibition): Plant Response Index (M) ([1]; 2 WAT, 5.6 kg/h) | Plant Response Index (O) ([2]; 2 WAT, 5.6 kg/h) | Plant Response Index (O) [2, 14] | Plant Response Index (G) ([3]; 4 WAT, 11.2 kg/h) | Plant Response Index (B) ([4]; Table II, 2 WAT, 11.2 kg/h) | Plant Response Index (B) ([4]; Table II, 4 WAT, 11.2 kg/h) | Plant Response Index (B) [4, 21] | Plant Response Index (B) ([4]; Table III, 2 WAT, 1.1 kg/h) | Plant Response Index (B) [4, 23] | Plant Response Index (B) ([4]; Table III, 4 WAT, 1.1 kg/h) | Plant Response Index (B) [4, 26] | Plant Response Index (D) ([5]; Table II, 2 WAT, 5.6 kg/h) | Plant Response Index (D) ([5]; Table II, 2 WAT, 11.2 kg/h) | Plant Response Index (D) [5, 19] | Plant Response Index (D) ([5]; Table II, 4 WAT, 5.6 kg/h) | Plant Response Index (D) [5, 20] | Plant Response Index (D) ([5]; Table II, 4 WAT, 11.2 kg/h) | Plant Response Index (D) [5, 21] | Plant Response Index (D) ([5]; Table III, 2 WAT, 1.1 kg/h) | Plant Response Index (D) [5, 22] | Plant Response Index (D) ([5]; Table III, 2 WAT, 5.6 kg/h) | Plant Response Index (D) [5, 23] | Plant Response Index (D) ([5]; Table III, 4 WAT, 1.1 kg/h) | Plant Response Index (D) [5, 25] | Plant Response Index (D) [5, 26] | Plant Response Index (Q) ([6]; 2 WAT, 1.1 kg/h) | Plant Response Index (Q) [6, 10] | Plant Response Index (Q) ([6]; 2 WAT, 5.6 kg/h) | Plant Response Index (Q) [6, 11] | Plant Response Index (Q) [6, 13] | Plant Response Index (Q) [6, 14] | Plant Response Index (C) ([7]; Table II, 2 WAT, 11.2 kg/h) | Plant Response Index (C) ([7]; Table III, 2 WAT, 5.6 kg/h) | Plant Response Index (C) [7, 23] | Plant Response Index (C) ([7]; Table III, 4 WAT, 5.6 kg/h) | Plant Response Index (C) [7, 26] | Plant Response Index (S) [9, 10] | Plant Response Index (S) [9, 11] | Plant Response Index (S) ([9]; 2 WAT, .28 kg/h) | Plant Response Index (S) [9, 13]
3 (75-99% inhibition): Plant Response Index (M) ([1]; 4 WAT, 5.6 kg/h) | Plant Response Index (O) ([2]; 4 WAT, 5.6 kg/h) | Plant Response Index (B) ([4]; Table III, 2 WAT, 5.6 kg/h) | Plant Response Index (B) ([4]; Table III, 4 WAT, 5.6 kg/h) | Plant Response Index (D) ([5]; Table III, 4 WAT, 5.6 kg/h) | Plant Response Index (Q) ([6]; 4 WAT, 5.6 kg/h) | Plant Response Index (S) ([9]; 2 WAT, 1.1 kg/h) | Plant Response Index (S) ([9]; 4 WAT, 1.1 kg/h) | Plant Response Index (S) [9, 14]
1 (25-49% inhibition): Plant Response Index (M) ([1]; 2 WAT, 1.1 kg/h) | Plant Response Index (M) [1, 10] | Plant Response Index (M) [1, 11] | Plant Response Index (M) ([1]; 4 WAT, 1.1 kg/h) | Plant Response Index (M) [1, 13] | Plant Response Index (M) [1, 14] | Plant Response Index (O) ([2]; 2 WAT, 1.1 kg/h) | Plant Response Index (O) [2, 11] | Plant Response Index (O) ([2]; 4 WAT, 1.1 kg/h) | Plant Response Index (G) ([3]; 2 WAT, 11.2 kg/h) | Plant Response Index (G) ([3]; 4 WAT, 5.6 kg/h) | Plant Response Index (G) [3, 14] | Plant Response Index (G) [3, 17] | Plant Response Index (B) ([4]; Table II, 2 WAT, 5.6 kg/h) | Plant Response Index (B) [4, 18] | Plant Response Index (B) [4, 19] | Plant Response Index (B) ([4]; Table II, 4 WAT, 5.6 kg/h) | Plant Response Index (B) [4, 20] | Plant Response Index (B) [4, 22] | Plant Response Index (B) [4, 24] | Plant Response Index (B) [4, 25] | Plant Response Index (B) [4, 27] | Plant Response Index (D) [5, 18] | Plant Response Index (D) ([5]; Table III, 2 WAT, .28 kg/h) | Plant Response Index (D) [5, 24] | Plant Response Index (D) [5, 27] | Plant Response Index (Q) ([6]; 2 WAT, .28 kg/h) | Plant Response Index (Q) [6, 12] | Plant Response Index (Q) ([6]; 4 WAT, 1.1 kg/h) | Plant Response Index (Q) [6, 15] | Plant Response Index (C) ([7]; Table II, 4 WAT, 11.2 kg/h) | Plant Response Index (C) [7, 21] | Plant Response Index (C) ([7]; Table III, 2 WAT, 1.1 kg/h) | Plant Response Index (C) [7, 22] | Plant Response Index (C) ([7]; Table III, 4 WAT, 1.1 kg/h) | Plant Response Index (C) [7, 25] | Plant Response Index (H) ([8]; 2 WAT, 11.2 kg/h) | Plant Response Index (H) [8, 14]
4 (100% inhibition): Plant Response Index (H) ([8]; 4 WAT, 11.2 kg/h) | Plant Response Index (S) ([9]; 2 WAT, 5.6 kg/h) | Plant Response Index (S) ([9]; 4 WAT, 5.6 kg/h)

Source: patent US4471131A, “Novel silyl esters of N-phosphonomethylglycine” (Monsanto Company, priority 1983, dated 1984)
